“Also recorded” adds a separate entry of the source.
Legend:
C-cell calcium receptor = molecular target: T1, C-cell calcium receptor (Rattus norvegicus, UniProt P48442); type: cell-based; conditions: Table 6; rMTC 6-23 cells, fura-2
T1 construct: Neoplastic C-cells derived from a rat medullary thyroid carcinoma (rMTC 6-23); host or cells: rMTC 6-23 cells
T1 sequence (P48442 20-1079): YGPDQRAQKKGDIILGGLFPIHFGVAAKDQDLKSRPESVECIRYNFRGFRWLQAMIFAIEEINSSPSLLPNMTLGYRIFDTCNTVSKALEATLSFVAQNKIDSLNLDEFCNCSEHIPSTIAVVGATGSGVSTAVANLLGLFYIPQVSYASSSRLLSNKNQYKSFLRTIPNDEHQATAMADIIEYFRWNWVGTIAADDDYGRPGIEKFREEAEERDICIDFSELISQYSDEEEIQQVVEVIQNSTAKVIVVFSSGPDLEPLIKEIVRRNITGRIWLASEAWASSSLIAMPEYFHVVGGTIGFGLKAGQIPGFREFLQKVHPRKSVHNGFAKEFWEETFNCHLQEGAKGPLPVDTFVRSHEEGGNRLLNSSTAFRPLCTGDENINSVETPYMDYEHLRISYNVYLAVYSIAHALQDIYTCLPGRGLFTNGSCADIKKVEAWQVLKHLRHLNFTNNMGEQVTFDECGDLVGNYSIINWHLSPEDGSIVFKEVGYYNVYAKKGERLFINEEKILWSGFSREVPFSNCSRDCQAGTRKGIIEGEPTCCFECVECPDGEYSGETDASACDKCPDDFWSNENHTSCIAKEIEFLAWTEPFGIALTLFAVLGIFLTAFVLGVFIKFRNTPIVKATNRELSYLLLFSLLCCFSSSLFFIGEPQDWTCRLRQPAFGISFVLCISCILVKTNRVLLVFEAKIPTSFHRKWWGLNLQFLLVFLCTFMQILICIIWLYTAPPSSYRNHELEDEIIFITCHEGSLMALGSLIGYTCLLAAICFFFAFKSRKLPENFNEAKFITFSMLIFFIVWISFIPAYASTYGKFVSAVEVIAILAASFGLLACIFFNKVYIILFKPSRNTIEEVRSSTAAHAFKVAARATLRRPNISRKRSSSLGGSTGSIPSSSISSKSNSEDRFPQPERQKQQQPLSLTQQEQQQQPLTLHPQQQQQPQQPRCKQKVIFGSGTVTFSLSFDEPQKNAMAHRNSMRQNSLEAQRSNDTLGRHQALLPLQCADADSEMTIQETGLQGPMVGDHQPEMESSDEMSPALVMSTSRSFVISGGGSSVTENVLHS
Description: To assess the effects of molecular polycations on C-cells, a neoplastic cell line, derived from a rat medullary thyroid carcinoma (rMTC 6-23 cells) was used.

[1] = system: parathyroid cell calcium receptor; assay: Cl- current in Xenopus oocytes injected with bovine parathyroid cell mRNA; type: cell-based; conditions: 30 μM; oocytes injected with parathyroid cell mRNA
Protocol: Following incubation, an oocyte was placed into a 100-μl plastic chamber and superfused with MBS at a flow rate of 0.5 ml/min using a peristaltic pump. Test molecules or inorganic polycations were added by rapidly moving the tubing into different buffers. Recording and current-passing electrodes were constructed from thin-wall capillary tubing pulled to a resistance of 1-3 Mohms and filled with 3 M KCl. […] Currents were recorded directly onto a strip chart recorder.

[2] = molecular target: T2, human parathyroid cell calcium receptor (Homo sapiens, UniProt P41180); assay: Cl- current in Xenopus oocytes expressing human parathyroid cell calcium receptor; type: cell-based
T2 construct: T7 cRNA injected into Xenopus oocytes
T2 sequence (P41180 with tags, fused parts or gaps INS536PLTFVLSVLQ/Q926R/E1011Q): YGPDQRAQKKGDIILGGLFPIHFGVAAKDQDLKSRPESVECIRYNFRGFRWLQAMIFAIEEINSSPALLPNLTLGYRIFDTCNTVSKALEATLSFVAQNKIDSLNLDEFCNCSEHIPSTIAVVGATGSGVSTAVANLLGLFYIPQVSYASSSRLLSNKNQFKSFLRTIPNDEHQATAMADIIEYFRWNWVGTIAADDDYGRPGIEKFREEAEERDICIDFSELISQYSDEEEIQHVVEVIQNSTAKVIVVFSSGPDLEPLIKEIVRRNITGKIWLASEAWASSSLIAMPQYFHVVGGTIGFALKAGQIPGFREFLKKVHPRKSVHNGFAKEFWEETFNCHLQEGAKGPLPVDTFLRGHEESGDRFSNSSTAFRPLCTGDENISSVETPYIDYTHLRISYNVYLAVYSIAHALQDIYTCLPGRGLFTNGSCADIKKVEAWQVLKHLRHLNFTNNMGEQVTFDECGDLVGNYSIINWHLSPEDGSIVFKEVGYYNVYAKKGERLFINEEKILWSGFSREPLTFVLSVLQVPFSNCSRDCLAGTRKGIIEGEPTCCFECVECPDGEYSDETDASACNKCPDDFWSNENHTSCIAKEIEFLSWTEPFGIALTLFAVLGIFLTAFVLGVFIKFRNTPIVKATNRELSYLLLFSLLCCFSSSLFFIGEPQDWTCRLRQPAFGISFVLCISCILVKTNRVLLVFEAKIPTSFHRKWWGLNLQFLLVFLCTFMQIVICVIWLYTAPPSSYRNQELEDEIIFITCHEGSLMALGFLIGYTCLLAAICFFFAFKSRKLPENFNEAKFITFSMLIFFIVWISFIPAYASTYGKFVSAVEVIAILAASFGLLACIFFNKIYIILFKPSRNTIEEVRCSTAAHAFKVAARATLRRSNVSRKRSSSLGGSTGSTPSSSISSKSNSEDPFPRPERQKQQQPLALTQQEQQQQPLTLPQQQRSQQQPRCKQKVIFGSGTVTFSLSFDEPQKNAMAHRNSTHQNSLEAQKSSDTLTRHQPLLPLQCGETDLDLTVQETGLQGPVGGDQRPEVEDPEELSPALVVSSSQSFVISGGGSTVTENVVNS
Protocol: Representative cDNA inserts for both size classes were subcloned into the plasmid vector pBluescript SK. Linearization followed by in vitro transcription using T7 RNA polymerase produced cRNA transcripts. The cRNA transcripts were injected into Xenopus oocytes (150 ng/μl RNA; 50 nl/oocyte) for functional analysis. Following incubation periods of 2-4 days, the oocytes were assayed for the presence of functional calcium receptors. Both clone types gave rise to functional calcium receptors as assessed by the stimulation of calcium-activated chloride currents upon addition of appropriate calcium receptor agonists. […] Thus, both clones encode a functional, human parathyroid cell calcium receptor.
Xenopus oocytes were injected with pHuPCaR 5.2, the 5.2 Kb cDNA encoding a parathyroid cell calcium receptor derived from a human parathyroid cell adenoma. (See Example 27.) After two to three days, Cl^- currents were measured in the oocytes using a two-electrode voltage clamp.

serum ionized calcium [3] = assay: serum ionized Ca2+ in rats; type: in vivo, rat; conditions: for effect on serum or whole blood Ca2+: NPS 467 i.p., low calcium diet
Protocol: (§1) Compounds shown to activate the bovine parathyroid cell calcium receptor in vitro were tested for hypocalcemic activity in vivo. Male Sprague-Dawley rats (200 g) were maintained on a low calcium diet for one week prior to receiving test substance or vehicle as control. Blood was collected from the tail vein three hours after the intra-peritoneal administration of NPS 467. […] Serum total calcium, albumin and phosphate were measured by techniques well known in the art.
Rats (male, Sprague-Dawley, 250-300 g) were fed standard rat chow and fasted overnight prior to the experiment. NPS R-467 was suspended in corn oil and administered as a single oral dose through a gavage needle. Three hours later a sample of blood was taken from the tail vein and assessed for ionized Ca^2+ levels.

serum ionized calcium [4] = assay: serum ionized Ca2+ in parathyroidectomized rats; type: in vivo, rat; conditions: NPS R-467 10 mg/kg i.p., 6 hours; NPS R-568 oral
Description: To determine the primary target tissue upon which NPS R-467 acts to cause a hypocalcemic response, the parathyroid glands in rats were surgically removed. Animals receiving a total parathyroidectomy become hypocalcemic and are largely dependent upon dietary calcium to maintain serum Ca^2+ homeostasis.

[5] = system: human parathyroid calcium receptor; assay: intracellular calcium in HEK293 cells stably transfected with human calcium receptor; type: cell-based; conditions: Ca2+ 10 mM; Mg2+ 20 mM; HuPCaR 5.2
Protocol: Different cells were tested for response to pure stereoisomers and racemic mixtures. […] Intracellular Ca^2+ was monitored using a fluorimeter. Each point on the graph represents the peak response (highest concentration of intracellular calcium achieved) to the addition of the indicated concentration of the indicated compound.
Cells obtained from the pool of hygromycin selected HEK293 cells transfected with Cep4B containing the HuPCaR 5.2 insert were plated on collagen coated Aklar squares which had been placed into individual wells of 12-well tissue culture plates. Two to six days later, medium was removed and the cells washed with balanced salt solution and 1 ml of buffer containing 1 μM fura2-AM, 1 mM CaCl2 and 0.1% BSA and 1 mM CaCl2. Measurements of fluorescence in response to calcium receptor agonists were performed at 37° C. in a spectrofluorimeter using excitation and emission wavelengths of 340 and 510 nm, respectively. For signal calibration, Fmax was determined after addition of ionomycin (40 μM) and the apparent Fmin was determined by addition of 0.3 M EGTA, 2.5 M Tris-HCl; pH 10.
Additional clonal isolates of HEK 293 cells transfected with pHuPCaR4.0 sequence were obtained. These were tested for responsiveness to calcimimetics as described above except that the cells were tested while in suspension. Similar positive results were obtained (FIG. 28b).

PTH = PTH levels in rats; type: in vivo, rat; conditions: NPS 467, preliminary studies
Description: The fall in blood Ca^2+ at this time was paralleled by a proportional fall in the levels of blood total calcium.

[6] = system: serum albumin or phosphate; assay: serum albumin and phosphate in rats; type: in vivo, rat; conditions: i.p.
Protocol: as §1

| SMILES | EC50 (C-cell calcium receptor) [µM] | effect on Cl- current [1] | activation of oocyte-expressed receptor [2] | effect on serum ionized Ca2+, oral (serum ionized calcium [3]; NPS R-467 single oral dose, 3 hours) | effect on serum ionized Ca2+ in parathyroidectomized rats (serum ionized calcium [4]) | increase in intracellular calcium [5] | effect on serum or whole blood Ca2+ (serum ionized calcium [3]) | effect on serum or whole blood Ca2+ (serum ionized calcium [3]; listed as NPS-467) | effect on circulating PTH (PTH) | effect on serum albumin or phosphate [6] |
| --- | --- | --- | --- | --- | --- | --- | --- | --- | --- | --- |
| COc1cccc([C@@H](C)NCCCc2ccccc2)c1 [NPS R-467, (R)-(+)-N-(3-phenylpropyl)-α-methyl-3-methoxybenzylamine] | 2.2 | rapid increase in Cl^- | activated the oocyte-expressed receptor at about the same concentrations | lowers serum ionized calcium; also recorded: dose-dependent reduction in serum levels of ionized Ca^2+ | did not cause any change in serum ionized Ca^2+ | Robust increases in intracellular calcium | – | – | – | – |
| COc1cccc(C(C)NCCCc2ccccc2)c1 (racemic) [NPS 467] | – | – | – | – | – | – | maximal within three hours | dose-dependent reduction in serum or whole blood Ca^2+ | dose-dependent reduction in circulating levels of PTH | no change in serum albumin or phosphate levels |

Reference: patent publication US5962314A, “Calcium receptor-active molecules” (priority 1997, dated 1999)
